The numbers were not newly measured in US11207270B2, “Controlled release dosage forms for high dose, water soluble and hygroscopic drug substances” (priority 2010, dated 2021), which cites them from elsewhere.

The test system of data set [1] is non-narcoleptic patients with fibromyalgia.
Data set [2] deals with patients suffering from disorders of disturbed sleep, including narcolepsy. Particulars: human, in vivo.
The test system of data set [3] is patients with hyperkinetic movement disorders including ethanol responsive myoclonus and essential tremor. Particulars: 5 patients.
The conditions of data set [4]: given orally, in man.

Structures are written as SMILES.

`O=C(O)CCCO` [GHB, gamma-hydroxy butyrate]: for the setting “immediate release formulation, dose between about 2.25 g and 4.5 g, within 4 hours of ingestion”, the plasma levels result is reported as “below 10 ug/mL”. Under “two separate immediate release doses, over a six hour period”, the Cmax/Cmin ratio result is “greater than 4”. The “estimates of overall wellness” value in data set [1] (before and after treatment) is given as “significant improvement”. Besides, the “subjective assessments of levels of pain and fatigue” value in data set [1] (over all 4 weeks of treatment compared to baseline) was “significant improvements”. In data set [2], the “Stage 3-4 (slow wave) sleep” value is “increase”, the nocturnal awakenings entry was “decrease” and the “total nocturnal sleep time” value was “increase”.

Take `O=C([O-])CCCO.[Na+]` [sodium oxybate]: in data set [3], the “blinded ratings of ethanol responsive myoclonus and tremor” value is on record as “dose-dependent improvements”; the tolerability entry is given as “tolerated at doses that provided clinical benefit”. Also, the plasma half-life entry in data set [4] is recorded as “about 45 minutes”.
